# Test results: the NIST ThermoML archive (doi:10.1016/j.jct.2012.01.004)
# Several values for one entry are separate records, joined by “and”; a condition that tells them apart may be missing. Equal values may be shown once. ± gives the expanded uncertainty stated by the source.
# Experiments:
# [1] = activity coefficient (dimensionless); of the first substance listed, at infinite dilution; xn = mol fraction of the nth substance listed; settings: Gas, Chromatography, x1 = 0
# [2] = 323.15 K; 101.33 kPa; Liquid; Vibrating tube method
activity coefficient ([1]; 313.15 K),activity coefficient ([1]; 333.15 K),activity coefficient ([1]; 353.15 K),activity coefficient ([1]; 363.15 K),mass density [2] [kg/m3],SMILES
0.659 and 0.705,0.543 and 0.553,0.438 and 0.448,0.415 and 0.419,,c1ccccc1 [benzene] + CCCCCCCCCCCCCC[P+](CCCCCC)(CCCCCC)CCCCCC.F[P-](F)(F)(F)(F)F
1.57 and 1.6,1.3 and 1.33,1.08 and 1.1,1.03 and 1.05,,C1CCCCCC1 [cycloheptane] + CCCCCCCCCCCCCC[P+](CCCCCC)(CCCCCC)CCCCCC.F[P-](F)(F)(F)(F)F
1.46 and 1.48,1.23 and 1.21,1.05 and 0.969,0.991 and 0.951,,C1CCCCC1 [cyclohexane] + CCCCCCCCCCCCCC[P+](CCCCCC)(CCCCCC)CCCCCC.F[P-](F)(F)(F)(F)F
1.88 and 1.89,1.57 and 1.6,1.32 and 1.33,1.23 and 1.3,,C1CCCCCCCC1 [cyclononane] + CCCCCCCCCCCCCC[P+](CCCCCC)(CCCCCC)CCCCCC.F[P-](F)(F)(F)(F)F
1.64 and 1.8,1.4 and 1.44,1.17 and 1.2,1.11 and 1.14,,C1CCCCCCC1 [cyclooctane] + CCCCCCCCCCCCCC[P+](CCCCCC)(CCCCCC)CCCCCC.F[P-](F)(F)(F)(F)F
1.35 and 1.34,1.08 and 1.14,0.901 and 0.941,0.883 and 0.871,,C1CCCC1 [cyclopentane] + CCCCCCCCCCCCCC[P+](CCCCCC)(CCCCCC)CCCCCC.F[P-](F)(F)(F)(F)F
3.28 and 3.32,2.62 and 2.9,2.29 and 2.31,2.19 and 2.24,,CCCCCCCCCC [decane] + CCCCCCCCCCCCCC[P+](CCCCCC)(CCCCCC)CCCCCC.F[P-](F)(F)(F)(F)F
2.21 and 2.31,1.51 and 1.49,0.989 and 1.01,0.893 and 0.911,,CCO [ethanol] + CCCCCCCCCCCCCC[P+](CCCCCC)(CCCCCC)CCCCCC.F[P-](F)(F)(F)(F)F
0.961 and 1,0.783 and 0.835,0.63 and 0.694,0.626 and 0.642,,CCc1ccccc1 [ethylbenzene] + CCCCCCCCCCCCCC[P+](CCCCCC)(CCCCCC)CCCCCC.F[P-](F)(F)(F)(F)F
2.25 and 2.19,1.81 and 2,1.65 and 1.67,1.55 and 1.65,,CCCCCCC [heptane] + CCCCCCCCCCCCCC[P+](CCCCCC)(CCCCCC)CCCCCC.F[P-](F)(F)(F)(F)F
1.67 and 1.7,1.41 and 1.44,1.14 and 1.26,1.13 and 1.17,,C=CCCCC [hex-1-ene] + CCCCCCCCCCCCCC[P+](CCCCCC)(CCCCCC)CCCCCC.F[P-](F)(F)(F)(F)F
1.96 and 2.07,1.69 and 1.79,1.48 and 1.5,1.43 and 1.47,,CCCCCC [hexane] + CCCCCCCCCCCCCC[P+](CCCCCC)(CCCCCC)CCCCCC.F[P-](F)(F)(F)(F)F
2.12 and 2.14,1.41 and 1.44,0.938 and 0.984,0.855 and 0.881,,CO [methanol] + CCCCCCCCCCCCCC[P+](CCCCCC)(CCCCCC)CCCCCC.F[P-](F)(F)(F)(F)F
2.77 and 3.04,2.43 and 2.47,2.09 and 2.05,1.98 and 2,,CCCCCCCCC [nonane] + CCCCCCCCCCCCCC[P+](CCCCCC)(CCCCCC)CCCCCC.F[P-](F)(F)(F)(F)F
2.02 and 2.2,1.75 and 1.79,1.51 and 1.48,1.44 and 1.43,,C=CCCCCCC [oct-1-ene] + CCCCCCCCCCCCCC[P+](CCCCCC)(CCCCCC)CCCCCC.F[P-](F)(F)(F)(F)F
2.53 and 2.49,2.12 and 2.18,1.87 and 1.83,1.81 and 1.74,,CCCCCCCC [octane] + CCCCCCCCCCCCCC[P+](CCCCCC)(CCCCCC)CCCCCC.F[P-](F)(F)(F)(F)F
1.77 and 1.92,1.52 and 1.55,1.27 and 1.29,1.19 and 1.25,,CCCCC [pentane] + CCCCCCCCCCCCCC[P+](CCCCCC)(CCCCCC)CCCCCC.F[P-](F)(F)(F)(F)F
1.14 and 1.1,0.939 and 0.949,0.799 and 0.779,0.777 and 0.735,,CCCc1ccccc1 [propylbenzene] + CCCCCCCCCCCCCC[P+](CCCCCC)(CCCCCC)CCCCCC.F[P-](F)(F)(F)(F)F
,,,,987.15 ± 1.1,CCCCCCCCCCCCCC[P+](CCCCCC)(CCCCCC)CCCCCC.F[P-](F)(F)(F)(F)F [trihexyl(tetradecyl)phosphonium hexafluorophosphate(V)]

# More lines, now with the values behind:
SMILES,activity coefficient ([1]; 313.15 K),activity coefficient ([1]; 333.15 K),activity coefficient ([1]; 353.15 K),activity coefficient ([1]; 363.15 K),mass density [2] [kg/m3]
C=CCCCCCCCC [1-decene] + CCCCCCCCCCCCCC[P+](CCCCCC)(CCCCCC)CCCCCC.F[P-](F)(F)(F)(F)F,2.81 and 2.79,2.29 and 2.28,1.85 and 1.83,1.74 and 1.75,
C#CCCCCCCCC [1-decyne] + CCCCCCCCCCCCCC[P+](CCCCCC)(CCCCCC)CCCCCC.F[P-](F)(F)(F)(F)F,2.76 and 2.84,2.49 and 2.32,1.83 and 1.85,1.74 and 1.72,
C=CCCCCC [1-heptene] + CCCCCCCCCCCCCC[P+](CCCCCC)(CCCCCC)CCCCCC.F[P-](F)(F)(F)(F)F,1.86 and 1.9,1.58 and 1.59,1.32 and 1.36,1.27 and 1.3,
C#CCCCCC [1-heptyne] + CCCCCCCCCCCCCC[P+](CCCCCC)(CCCCCC)CCCCCC.F[P-](F)(F)(F)(F)F,1.96 and 1.8,1.59 and 1.61,1.36 and 1.32,1.3 and 1.27,
C#CCCCC [1-hexyne] + CCCCCCCCCCCCCC[P+](CCCCCC)(CCCCCC)CCCCCC.F[P-](F)(F)(F)(F)F,1.66 and 1.71,1.42 and 1.43,1.16 and 1.24,1.16 and 1.14,
C=CCCCCCCC [1-nonene] + CCCCCCCCCCCCCC[P+](CCCCCC)(CCCCCC)CCCCCC.F[P-](F)(F)(F)(F)F,2.4 and 2.5,2.01 and 1.98,1.62 and 1.63,1.54 and 1.55,
C#CCCCCCCC [1-nonyne] + CCCCCCCCCCCCCC[P+](CCCCCC)(CCCCCC)CCCCCC.F[P-](F)(F)(F)(F)F,2.5 and 2.4,1.96 and 2.02,1.65 and 1.59,1.56 and 1.52,
C#CCCCCCC [1-octyne] + CCCCCCCCCCCCCC[P+](CCCCCC)(CCCCCC)CCCCCC.F[P-](F)(F)(F)(F)F,2.19 and 2.03,1.79 and 1.75,1.44 and 1.56,1.41 and 1.46,
C=CCCC [1-pentene] + CCCCCCCCCCCCCC[P+](CCCCCC)(CCCCCC)CCCCCC.F[P-](F)(F)(F)(F)F,1.42 and 1.54,1.24 and 1.37,1.07 and 1.13,1.05 and 1.07,
C#CCCC [1-pentyne] + CCCCCCCCCCCCCC[P+](CCCCCC)(CCCCCC)CCCCCC.F[P-](F)(F)(F)(F)F,1.52 and 1.44,1.28 and 1.27,1.05 and 1.15,1.03 and 1.09,
CC(C)=O [acetone] + CCCCCCCCCCCCCC[P+](CCCCCC)(CCCCCC)CCCCCC.F[P-](F)(F)(F)(F)F,0.648 and 0.694,0.517 and 0.507,0.388 and 0.404,0.371 and 0.381,
CCC(C)=O [butanone] + CCCCCCCCCCCCCC[P+](CCCCCC)(CCCCCC)CCCCCC.F[P-](F)(F)(F)(F)F,0.735 and 0.677,0.542 and 0.524,0.41 and 0.396,0.373 and 0.375,
Cc1ccccc1 [toluene] + CCCCCCCCCCCCCC[P+](CCCCCC)(CCCCCC)CCCCCC.F[P-](F)(F)(F)(F)F,0.772 and 0.814,0.671 and 0.639,0.535 and 0.541,0.506 and 0.516,
